Experimental data taken from US12642780B2, “Methods and compositions to treat and prevent viral infections and acute respiratory distress syndrome” (priority 2020, dated 2026).

Experiments:
[1] = test system: SARS-CoV-2 USA-WA1/2020 strain; experiment: SARS-CoV-2 infection in hACE2 mice; format: in vivo, mouse
mtDNA = mtDNA synthesis and cytosolic Ox-mtDNA in BMDM; format: cell-based, mouse
Description: To image mtDNA synthesis, BMDM were stimulated with LPS ([…]) for 4 hrs in the presence of 10 μM EdU. Cells were then washed twice with sterile PBS and fixed in 4% PFA for 15 min followed by permeabilization with 0.02% Triton X-100 for 10 min. EdU staining was performed using a Click-iT EdU Microplate Assay Kit (Thermo Fisher Scientific). In brief, BMDMs were postfixed in EdU fixative for 5 min, and equal volumes of the EdU reaction cocktail, which was prepared immediately before use, were added to each chamber and left overnight. Primary antibody against the mitochondrial marker Atp5b was included in the EdU reaction cocktail. The next day, the BMDM were washed three times with PBS followed by incubation with secondary Alexa antibodies from Life Technologies or Jackson Immuno Research Laboratories. DAPI was used for nuclear counterstaining.
Total DNA was isolated using Allprep DNA/RNA Mini Kit (catalogue 80204, Qiagen) according to manufacturer's instructions. mtDNA was quantified by qPCR using primers specific for the mitochondrial D-loop region, cytochrome c oxidase (COX) or a specific region of mtDNA that is not inserted into nuclear DNA (non-NUMT) (Zhong et al., 2018). Nuclear DNA encoding Teri, 18S ribosomal RNA and B2m was used for normalization.
Cellular fractionation was performed using Mitochondrial Isolation kit (89874, ThermoScientific) according to manufacturer's instructions. Cytosolic mtDNA was analyzed as described (Nakahira et al., 2011). For the measurement of Ox-mtDNA, mtDNA was first purified using Allprep DNA/RNA mini kit (Qiagen) from the cytosolic fraction of BMDM as described above. The 8-OH-dG content of the mtDNA was then quantified using an 8-OHdG quantification kit (ab201734), per manufacturer's instructions.

CN(C)C(=N)NC(=N)N [metformin, N,N-dimethylbiguanide]
infection-associated loss of body weight ([1]; day 2 post-inoculation): slowed down
immune cell infiltration, alveolar wall thickening and c/EBPβ activation ([1]; hACE2 Tg mice, 50 mg/kg i.p. from 2 days before infection, 6 days post-infection): reduced
macrophages with ASC specks in lungs ([1]; hACE2 Tg mice, 50 mg/kg, day 6 post-infection): almost none
inhibition of LPS-induced mtDNA synthesis by EdU-labelling (mtDNA; BMDM, LPS 4 hrs, metformin 0.5 mM 16 hrs): confirmed
LPS-stimulated mtDNA synthesis (mtDNA; LPS-primed BMDM, metformin 0.5 mM 16 h): strongly inhibited
generation of cytoplasmic Ox-mtDNA (mtDNA; LPS-primed macrophages challenged with ATP or nigericin, metformin): blocked generation
effect of AMPKα1 silencing on LPS-stimulated mtDNA synthesis and its inhibition by metformin (mtDNA; shPrkaa1 BMDM): no effect
